Reference: US12448389B2, “BRM targeting compounds and associated methods of use” (Prelude Therapeutics Incorporated, priority 2020, dated 2025)

Assays:
[1] = biological target: T1, SMARCA2-HiBiT (Homo sapiens, UniProt P51531); assay: SMARCA2 HiBiT degradation assay in HeLa cells; format: cell-based; settings: 18 hours incubation; for DC50: read-out: HeLa_HiBit-SM2 DC50; for Dmax: HeLa, read-out: HeLa-HiBit-SM2 Dmax (%)
T1 construct: SMARCA2-HiBiT knock-in Hela monoclonal cell (CS302366); host or cells: HeLa monoclonal knock-in line (CRISPR HiBiT knock-in at the endogenous locus, heterozygous)
T1 sequence (P51531 whole entry): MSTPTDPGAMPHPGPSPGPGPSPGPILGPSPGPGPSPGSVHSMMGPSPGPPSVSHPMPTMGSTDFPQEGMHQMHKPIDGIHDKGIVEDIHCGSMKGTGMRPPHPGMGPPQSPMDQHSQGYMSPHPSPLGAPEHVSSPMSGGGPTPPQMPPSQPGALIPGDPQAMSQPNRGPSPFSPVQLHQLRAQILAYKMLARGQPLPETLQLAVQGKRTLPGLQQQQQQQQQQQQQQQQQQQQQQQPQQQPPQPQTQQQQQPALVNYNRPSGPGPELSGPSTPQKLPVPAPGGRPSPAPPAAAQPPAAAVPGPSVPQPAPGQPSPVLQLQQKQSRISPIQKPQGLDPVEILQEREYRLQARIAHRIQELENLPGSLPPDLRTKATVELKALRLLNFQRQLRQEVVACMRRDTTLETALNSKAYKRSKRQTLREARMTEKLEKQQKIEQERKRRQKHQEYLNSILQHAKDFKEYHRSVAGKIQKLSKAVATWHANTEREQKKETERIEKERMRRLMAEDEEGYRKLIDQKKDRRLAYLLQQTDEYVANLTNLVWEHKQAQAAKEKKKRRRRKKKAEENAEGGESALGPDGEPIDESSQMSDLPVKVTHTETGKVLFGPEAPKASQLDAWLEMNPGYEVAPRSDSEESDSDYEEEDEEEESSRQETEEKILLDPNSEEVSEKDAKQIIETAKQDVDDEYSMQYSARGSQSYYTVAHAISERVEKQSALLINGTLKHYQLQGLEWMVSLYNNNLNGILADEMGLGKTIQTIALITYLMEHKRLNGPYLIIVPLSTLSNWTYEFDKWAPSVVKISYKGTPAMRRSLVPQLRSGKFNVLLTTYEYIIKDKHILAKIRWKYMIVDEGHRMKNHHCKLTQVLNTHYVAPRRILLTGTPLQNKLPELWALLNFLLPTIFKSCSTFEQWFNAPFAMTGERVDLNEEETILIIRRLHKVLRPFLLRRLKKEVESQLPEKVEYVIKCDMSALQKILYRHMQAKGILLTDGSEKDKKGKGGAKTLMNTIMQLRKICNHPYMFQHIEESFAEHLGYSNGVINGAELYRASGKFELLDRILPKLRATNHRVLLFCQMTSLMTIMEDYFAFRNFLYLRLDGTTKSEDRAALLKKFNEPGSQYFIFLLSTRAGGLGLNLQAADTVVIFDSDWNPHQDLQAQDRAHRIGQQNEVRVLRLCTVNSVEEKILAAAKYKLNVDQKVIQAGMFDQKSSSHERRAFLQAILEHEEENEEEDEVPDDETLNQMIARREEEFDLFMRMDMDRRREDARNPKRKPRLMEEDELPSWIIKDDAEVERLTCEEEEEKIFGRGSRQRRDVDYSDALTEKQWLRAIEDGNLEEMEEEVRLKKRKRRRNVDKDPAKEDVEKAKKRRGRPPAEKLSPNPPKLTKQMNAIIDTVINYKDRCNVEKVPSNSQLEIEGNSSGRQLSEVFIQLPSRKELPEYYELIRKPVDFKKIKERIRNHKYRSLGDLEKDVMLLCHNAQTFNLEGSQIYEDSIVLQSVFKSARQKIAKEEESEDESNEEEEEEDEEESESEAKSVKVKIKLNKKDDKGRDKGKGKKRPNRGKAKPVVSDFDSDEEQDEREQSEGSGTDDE
How it was run: (§1)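 HeLa monoclonal lines with heterozygous HiBiT knock-in were seeded at 2500 cells/well in EMEM with 10% FBS and treated with compound for 18 h at 37 °C. Remaining tagged protein was measured by Nano-Glo HiBiT lytic luminescence after 30–60 min at RT, and values came from curve fitting.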

[2] = biological target: T2, SMARCA4-HiBiT (Homo sapiens, UniProt P51532); assay: SMARCA4 HiBiT degradation assay in HeLa cells; format: cell-based; settings: 18 hours incubation; for DC50: read-out: HeLa-HiBit-SM4 DC50; for Dmax: HeLa, read-out: HeLa-HiBit-SM4 Dmax (%)
T2 construct: SMARCA4-HiBiT knock-in Hela monoclonal cell (CS3023226); host or cells: HeLa monoclonal knock-in line (CRISPR HiBiT knock-in at the endogenous locus, heterozygous)
T2 sequence (P51532 whole entry): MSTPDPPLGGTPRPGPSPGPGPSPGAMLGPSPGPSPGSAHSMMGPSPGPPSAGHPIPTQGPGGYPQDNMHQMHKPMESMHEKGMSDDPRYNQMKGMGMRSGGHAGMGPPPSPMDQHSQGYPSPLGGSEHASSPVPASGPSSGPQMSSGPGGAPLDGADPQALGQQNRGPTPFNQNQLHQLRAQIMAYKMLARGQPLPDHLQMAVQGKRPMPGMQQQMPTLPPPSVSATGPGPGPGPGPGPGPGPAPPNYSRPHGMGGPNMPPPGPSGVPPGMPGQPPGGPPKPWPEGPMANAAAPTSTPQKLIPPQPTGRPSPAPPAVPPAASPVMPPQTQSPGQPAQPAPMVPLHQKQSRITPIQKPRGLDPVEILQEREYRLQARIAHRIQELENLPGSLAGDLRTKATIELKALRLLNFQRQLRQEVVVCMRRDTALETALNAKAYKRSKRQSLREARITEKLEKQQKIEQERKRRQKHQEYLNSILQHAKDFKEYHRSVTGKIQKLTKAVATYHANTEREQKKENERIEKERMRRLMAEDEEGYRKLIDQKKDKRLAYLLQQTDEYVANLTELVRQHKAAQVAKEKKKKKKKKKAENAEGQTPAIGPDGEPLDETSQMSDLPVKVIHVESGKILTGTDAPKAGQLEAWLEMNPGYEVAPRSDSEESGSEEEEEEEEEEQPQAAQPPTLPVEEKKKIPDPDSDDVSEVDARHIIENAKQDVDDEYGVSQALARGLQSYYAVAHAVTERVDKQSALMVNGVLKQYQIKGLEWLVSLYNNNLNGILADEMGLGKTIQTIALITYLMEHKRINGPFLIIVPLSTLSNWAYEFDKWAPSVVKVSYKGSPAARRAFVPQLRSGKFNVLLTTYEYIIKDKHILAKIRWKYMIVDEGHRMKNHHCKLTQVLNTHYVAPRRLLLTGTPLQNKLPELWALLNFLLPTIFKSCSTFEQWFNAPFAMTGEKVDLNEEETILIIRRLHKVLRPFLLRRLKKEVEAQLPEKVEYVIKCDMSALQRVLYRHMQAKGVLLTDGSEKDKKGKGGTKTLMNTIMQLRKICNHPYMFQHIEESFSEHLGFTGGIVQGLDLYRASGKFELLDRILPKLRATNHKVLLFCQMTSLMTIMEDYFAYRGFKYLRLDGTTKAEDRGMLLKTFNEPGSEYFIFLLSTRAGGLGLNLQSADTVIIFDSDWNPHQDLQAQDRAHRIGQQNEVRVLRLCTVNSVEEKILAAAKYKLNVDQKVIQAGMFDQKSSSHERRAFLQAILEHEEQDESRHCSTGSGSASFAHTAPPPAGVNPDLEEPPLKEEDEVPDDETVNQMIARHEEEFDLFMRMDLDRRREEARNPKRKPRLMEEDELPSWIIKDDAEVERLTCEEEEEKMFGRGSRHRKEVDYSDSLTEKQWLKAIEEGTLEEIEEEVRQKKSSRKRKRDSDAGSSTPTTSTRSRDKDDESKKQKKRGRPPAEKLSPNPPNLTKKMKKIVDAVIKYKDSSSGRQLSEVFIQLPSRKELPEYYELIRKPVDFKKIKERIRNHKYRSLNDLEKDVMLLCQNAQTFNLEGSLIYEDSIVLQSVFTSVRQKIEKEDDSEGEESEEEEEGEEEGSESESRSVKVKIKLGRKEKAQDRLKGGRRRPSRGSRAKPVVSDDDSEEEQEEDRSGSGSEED
How it was run: as §1

O=C1CCC(N2C(=O)c3ccc(N4CCC(CN[C@H]5C[C@@H](CN6CCN7c8cc(-c9ccccc9O)nnc8NC[C@H]7C6)C5)CC4)cc3C2=O)C(=O)N1 (stereo partly drawn) [Example 78, 2-(2,6-dioxopiperidin-3-yl)-5-(4-((((1R,3s)-3-(((S)-2-(2-hydroxyphenyl)-5,6,6a,7,9,10-hexahydro-8H-pyrazino[1′,2′:4,5]pyrazino[2,3-c]pyridazin-8-yl)methyl)cyclobutyl)amino)methyl)piperidin-1-yl)isoindolme-1,3-dione]
DC50 [1]: < 0.01 µM | Dmax [1]: > 85% | DC50 [2]: < 0.01 µM | Dmax [2]: > 85%

O=C1CCC(N2Cc3cc(N4CCC(CN5CCC(CN6CCN7c8cc(-c9ccccc9O)nnc8NC[C@H]7C6)CC5)CC4)c(F)cc3C2=O)C(=O)N1 (stereo partly drawn) [Example 234, 3-(6-fluoro-5-(4-((4-(((S)-2-(2-hydroxyphenyl)-5,6,6a,7,9,1O-hexahydro-8H-pyrazino[1′,2′:4,5]pyrazino[2,3-c]pyridazin-8-yl)methyl)piperidin-1-yl)methyl)piperidin-1-yl)-1-oxoisoindolin-2-yl)piperidine-2,6-dione]
DC50 [1]: < 0.01 µM | Dmax [1]: > 85% | DC50 [2]: < 0.01 µM | Dmax [2]: > 85%

O=C1CCC(N2Cc3ccc(N4CCOC(CN5CCN(C(=O)N6CCN7c8cc(-c9ccccc9O)nnc8NC[C@H]7C6)CC5)C4)cc3C2=O)C(=O)N1 (stereo partly drawn) [Example 111, 3-(6-(2-((4-((S)-2-(2-hydroxyphenyl)-6,6a,7,8,9,10-hexahydro-5H-pyrazino[1′,2′:4,5]pyrazino[2,3-c]pyridazine-8-carbonyl)piperazin-1-yl)methyl)morpholino)-1-oxoisoindolin-2-yl)piperidine-2,6-dione]
DC50 [1]: < 0.01 µM | Dmax [1]: 50 to 75% | DC50 [2]: 0.01 to 0.1 µM | Dmax [2]: 50 to 75%

CC1CN(CC2CCN(c3ccc4c(c3)C(=O)N(C3CCC(=O)NC3=O)C4)CC2)CC(C)N1C(=O)N1CCN2c3cc(-c4ccccc4O)nnc3NC[C@H]2C1 (stereo partly drawn) [Example 266, 3-(6-(4-((4-((S)-2-(2-hydroxyphenyl)-6,6a,7,8,9,10-hexahydro-5H-pyrazino[1′,2′:4,5]pyrazino[2,3-c]pyridazine-8-carbonyl)-3,5-dimethylpiperazin-1-yl)methyl)piperidin-1-yl)-1-oxoisoindolin-2-yl)piperidine-2,6-dione]
DC50 [1]: < 0.01 µM | Dmax [1]: > 85% | DC50 [2]: < 0.01 µM | Dmax [2]: > 85%

CN(CCN1CCC(N2CCN3c4cc(-c5ccccc5O)nnc4NC[C@H]3C2)CC1)c1cccc2c1C(=O)N(C1CCC(=O)NC1=O)C2=O (stereo partly drawn) [Example 68, 2-(2,6-dioxopiperidin-3-yl)-4-((2-(4-((S)-2-(2-hydroxyphenyl)-5,6,6a,7,9,10-hexahydro-8H-pyrazino[1′,2′:4,5]pyrazino[2,3-c]pyridazin-8-yl)piperidin-1-yl)ethyl)(methyl)amino)isoindoline-1,3-dione]
DC50 [1]: < 0.01 µM | Dmax [1]: > 85% | DC50 [2]: 0.01 to 0.1 µM | Dmax [2]: > 85%

O=C1CCC(N2Cc3ccc(N4CC[C@H](CN5CCC(C(=O)N6CCN7c8cc(-c9ccccc9O)nnc8NC[C@H]7C6)CC5)[C@@H](F)C4)cc3C2=O)C(=O)N1 (stereo partly drawn) [Example 261, 3-(6-((3R,4R)-3-fluoro-4-((4-((S)-2-(2-hydroxyphenyl)-6,6a,7,8,9,10-hexahydro-5H-pyrazino[1′,2′:4,5]pyrazino[2,3-c]pyridazine-8-carbonyl)piperidin-1-yl)methyl)piperidin-1-yl)-1-oxoisoindolin-2-yl)piperidine-2,6-dione]
DC50 [1]: < 0.01 µM | Dmax [1]: > 85% | DC50 [2]: 0.01 to 0.1 µM | Dmax [2]: 75 to 85%

C[C@H]1CN(CC2CCN(c3ccc4c(c3)C(=O)N(C3CCC(=O)NC3=O)C4)CC2)CCN1C(=O)N1CCN2c3cc(-c4ccccc4O)nnc3NC[C@H]2C1 (stereo partly drawn) [Example 112, 3-(6-(4-(((S)-4-((S)-2-(2-hydroxyphenyl)-6,6a,7,8,9,10-hexahydro-5H-pyrazino[1′,2′:4,5]pyrazino[2,3-c]pyridazine-8-carbonyl)-3-methylpiperazin-1-yl)methyl)piperidin-1-yl)-1-oxoisoindolin-2-yl)piperidine-2,6-dione]
DC50 [1]: < 0.01 µM | Dmax [1]: > 85% | DC50 [2]: < 0.01 µM | Dmax [2]: 75 to 85%

O=C1CCC(NC(=O)c2ccc(N3CCC(CN4CCC(N5CCN6c7cc(-c8ccccc8O)nnc7NC[C@H]6C5)CC4)CC3)cn2)C(=O)N1 (stereo partly drawn) [Example 24, N-(2,6-dioxopiperidin-3-yl)-5-(4-((4-((S)-2-(2-hydroxyphenyl)-5,6,6a,7,9,10-hexahydro-8H-pyrazino[1′,2′:4,5]pyrazino[2,3-c]pyridazin-8-yl)piperidin-1-yl)methyl)piperidin-1-yl)picolinamide]
DC50 [1]: < 0.01 µM | Dmax [1]: > 85% | DC50 [2]: < 0.01 µM | Dmax [2]: 75 to 85%

CN(CC1CCN(CC2CCN(c3ccc4c(c3)C(=O)N(C3CCC(=O)NC3=O)C4=O)CC2)CC1)C1CCN2c3cc(-c4ccccc4O)nnc3NCC2C1 (stereo not shown) [Example 254, 2-(2,6-dioxopiperidin-3-yl)-5-(4-((4-(((2-(2-hydroxy-phenyl)-6,6a,7,8,9,10-hexahydro-5H-pyrido[1′,2′:4,5]pyrazino[2,3-c]pyridazin-8-yl)(methyl)amino)methyl)piperidin-1-yl)methyl)piperidin-1-yl)isoindoline-1,3-dione]
DC50 [1]: < 0.01 µM | Dmax [1]: 50 to 75% | DC50 [2]: 0.01 to 0.1 µM | Dmax [2]: 75 to 85%

O=C1CCC(N2C(=O)c3cccc(N4CCC(CCCN5CCC6(CCC(N7CCN8c9cc(-c%10ccccc%10O)nnc9NC[C@H]8C7)CC6)CC5)CC4)c3C2=O)C(=O)N1 (stereo partly drawn) [Example 72, 2-(2,6-dioxopiperidin-3-yl)-4-(4-(3-(9-((S)-2-(2-hydroxyphenyl)-5,6,6a,7,9,10-hexahydro-8H-pyrazino[1′,2′:4,5]pyrazino[2,3-c]pyridazin-8-yl)-3-azaspiro[5.5]undecan-3-yl)propyl)piperidin-1-yl)isoindoline-1,3-dione]
DC50 [1]: < 0.01 µM | Dmax [1]: 75 to 85% | DC50 [2]: < 0.01 µM | Dmax [2]: 50 to 75%

CC1CN(CC2CN(c3ccc4c(c3)C(=O)N(C3CCC(=O)NC3=O)C4=O)C2)CC(C)N1C(=O)N1CCN2c3cc(-c4ccccc4O)nnc3NC[C@H]2C1 (stereo partly drawn) [Example 274, 2-(2,6-dioxopiperidin-3-yl)-5-(3-((4-((S)-2-(2-hydroxyphenyl)-6,6a,7,8,9,10-hexahydro-5H-pyrazino[1 ′,2′:4,5]pyrazino[2,3-c]pyridazine-8-carbonyl)-3,5-dimethylpiperazin-1-yl)methyl)azetidin-1-yl)isoindoline-1,3-dione]
DC50 [1]: < 0.01 µM | Dmax [1]: > 85% | DC50 [2]: < 0.01 µM | Dmax [2]: 50 to 75%

O=C1CCC(N2Cc3cc(N4CCC(CN5CCC(CN6CCN7c8cc(-c9ccccc9O)nnc8NC[C@H]7C6)CC5)CC4)ccc3C2=O)C(=O)N1 (stereo partly drawn) [Example 231, 3-(5-(4-((4-(((S)-2-(2-hydroxyphenyl)-5,6,6a,7,9,10-hexahydro-8H-pyrazino[1′,2′:4,5]pyrazino[2,3-c]pyridazin-8-yl)methyl)piperidin-1-yl)methyl)piperidin-1-yl)-1-oxoisoindolin-2-yl)piperidine-2,6-dione]
DC50 [1]: < 0.01 µM | Dmax [1]: > 85% | DC50 [2]: < 0.01 µM | Dmax [2]: > 85%

N#CC1(CN2CCN3c4cc(-c5ccccc5O)nnc4NC[C@H]3C2)CCN(CC2CCN(c3ccc4c(c3)C(=O)N(C3CCC(=O)NC3=O)C4=O)CC2)CC1 (stereo partly drawn) [Example 178, 1-[[1-[2-(2,6-dioxopiperidin-3-yl)-1,3-dioxoisoindol-5-yl]piperidin-4-yl]methyl]-4-[[(10S)-4-(2-hydroxyphenyl)-1,5,6,8,12-pentazatricyclo[8.4.0.02,7]tetradeca-2,4,6-trien-12-yl]methyl]piperidine-4-carbonitrile]
DC50 [1]: < 0.01 µM | Dmax [1]: > 85% | DC50 [2]: < 0.01 µM | Dmax [2]: 75 to 85%

C[C@@H]1C[C@H](CN2C[C@@H]3[C@H](C2)[C@H]3CN2CCN3c4cc(-c5ccccc5O)nnc4NC[C@H]3C2)CCN1c1ccc2c(c1)C(=O)N(C1CCC(=O)NC1=O)C2=O (stereo partly drawn) [Example 183, 2-(2,6-dioxopiperidin-3-yl)-5-[(2R,4R)-4-[[(1S,5R)-6-[[(10S)-4-(2-hydroxyphenyl)-1,5,6,8,12-pentazatricyclo[8.4.0.02,7]tetradeca-2,4,6-trien-12-yl]methyl]-3-azabicyclo[3.1.0]hexan-3-yl]methyl]-2-methylpiperidin-1-yl] isoindole-1,3-dione]
DC50 [1]: < 0.01 µM | Dmax [1]: > 85% | DC50 [2]: < 0.01 µM | Dmax [2]: 75 to 85%

O=C1CCC(N2C(=O)c3ccc(N4CCC(O)(CN5CCC(CN6CCN7c8cc(-c9ccccc9O)nnc8NC[C@H]7C6)CC5)CC4)cc3C2=O)C(=O)N1 (stereo partly drawn) [Example 50, 2-(2,6-dioxopiperidin-3-yl)-5-(4-hydroxy-4-((4-(((S)-2-(2-hydroxyphenyl)-5,6,6a,7,9,10-hexahydro-8H-pyrazino[1′,2′:4,5]pyrazino[2,3-c]pyridazin-8-yl)methyl)piperidin-1-yl)methyl)piperidin-1-yl)isoindoline-1,3-dione]
DC50 [1]: < 0.01 µM | Dmax [1]: > 85% | DC50 [2]: < 0.01 µM | Dmax [2]: 75 to 85%

O=C1CCC(N2C(=O)c3ccc(N4Cc5cnc(N6C[C@@H]7[C@@H](CN8CCN9c%10cc(-c%11ccccc%11O)nnc%10NC[C@H]9C8)[C@@H]7C6)nc5C4)cc3C2=O)C(=O)N1 (stereo partly drawn) [Example 58, 2-(2,6-dioxopiperidin-3-yl)-5-(2-((1R,5S,6s)-6-(((S)-2-(2-hydroxyphenyl)-5,6,6a,7,9,10-hexahydro-8H-pyrazino[1′,2′:4,5]pyrazino[2,3-c]pyridazin-8-yl)methyl)-3-azabicyclo[3.1.0]hexan-3-yl)-5,7-dihydro-6H-pyrrolo[3,4-d]pyrimidin-6-yl) isoindoline-1,3-dione]
DC50 [1]: < 0.01 µM | Dmax [1]: 50 to 75% | DC50 [2]: 0.01 to 0.1 µM | Dmax [2]: ≤ 50%
